“Also recorded” adds a separate entry of the source.
Key:
Type in all cases: in vivo, mouse
[1] = tested on: BWF1 mice with high proteinuria (PU^hi); experiment: Therapeutic treatment of BWF1 mice after clinical nephritis / high proteinuria (PU^hi)
Experimental: (§1) Therapeutic Groups: a low proteinuria group)(PU^lo) consisted of mice with IgG anti-dsDNA detectable in serum and proteinuria ≦100 mg/dL, and a high proteinuria group (PU^hi) had proteinuria ≧300 mg/dL.
(§2) Proteinuria was evaluated weekly using Albustix (Siemens), serum creatinine using a commercial kit (Arbor Assays) and anti-dsDNA IgG antibodies by ELISA as described previously (10). See, e.g., FIGS. 1 and 2.
(§3) Kidney specimens of BWF1 mice (37 weeks of age in the prevention group or 7 and 11 weeks after institution of early or late therapies) were embedded in OCT compound and snap frozen. 4-5 μm an sections were air-dried, fixed with cold acetone and incubated with blocking buffer (anti-CD16/CD32 (1/50), 2% normal goat or rat serum, 2% BSA).
(§4) Histological analysis of glomerular pathology was done by an investigator blinded to treatment group and included acute inflammatory features (endocapillary hypercellularity, mesangial hypercellularity, cellular necrosis, cellular crescents, and interstitial inflammation), and chronic features (global glomerulosclerosis (GS), focal segmental glomerulosclerosis (FSGS), and interstitial fibrosis or tubular atrophy (IF/TA)). […] The weighted total score of the clinical features was based on this formula: [endocapillary hypercellularity+mesengial hypercellularity+(cellular necrosis*2)+(cellular crescents*2)+interstitial inflammation)/5]+(GS+FSGS+IFTA)/3, with maximum score 5.2. A minimum of 25 glomeruli, of at least 10 mice per group, were scored. Scores from each individual mouse were added and averaged to yield the glomerulonephritis score.

[2] = tested on: BWF1 mice with anti-dsDNA and low proteinuria (PU^lo); experiment: Therapeutic treatment of BWF1 mice with anti-dsDNA and low proteinuria (PU^lo); conditions: LAQ 25 mg/kg, MMF 100 mg/kg
Experimental: as §1, §2, §3, §4

[3] = tested on: spleen cell subsets; experiment: Spleen cell subsets of treated BWF1 mice by flow cytometry
Source text: Water-gavaged mice constituted the control untreated animals. The spleen cell subsets were identified by the expression of cell surface markers at age 32 weeks as follow: iTregs; nTregs; MΦ: CD11b^−CD103^−; MΦ^2: CD11b^+Ly6C^hiGr-1^−; MΦ^3: CD11b^+Ly6C^intGr-1^−; Gr-1: CD11b ly6C^intGr-1^+; DC: CD11c^+CD103^+; T2: CD19^+CD23^+CD21^+IgM^hi; MZ: CD19^+CD23^−CD21^+IgM^hi. Abbreviations: iTregs=induced T regulatory cells (Tregs). nTregs=natural Tregs. T2=transitional 2 B cells. MZ=marginal zone B cells. MΦ=macrophages. Gr1=granulocytes. Values are mean±SEM. The statistical significance between the groups was determined by analysis of variance (-A-NOVA). ^AP<0.05 versus untreated controls.
Single cell suspensions of splenocytes or kidney cells were prepared using cell strainers (Fisher), followed by red blood cell lysis. Kidney lymphocytes were separated from connective tissue by centrifugation (15 minutes at 400g) in 30% Percoll (GE Healthcare). CD4^+CD25^− cells from spleen and kidney were isolated using the CD4^+CD25^+ regulatory T cell isolation kit according to manufacturer's protocol (Miltenyi). CD11b+ cells were isolated using EasySep mouse CD11b positive selection kit (StemCell Technologies), surface stained for Ly6C and Ly6G prior to sorting myeloid-derived suppressor cells (MDSC) using FACSAria II. Populations were >95% pure by FACS analysis.
Single-cell suspensions from spleen or kidneys were stained for extracellular markers for 20 min at 4° C. in PBS/1% FBS. Intracellular staining for Foxp3 and cytokines was performed using the Foxp3 Fixation/Permeabilization kit according to the manufacturer's protocol (eBioscience). Cells were acquired on a FACS LSR II (BD) and data was analyzed using Flowjo (Tree Star).

[4] = tested on: spleen cell subsets; experiment: as above; conditions: for Frequency of cells ± SEM: CD4+ / Frequency of cells ± SEM: CD8+ / Frequency of cells ± SEM: CD11b^+Ly6C^+Ly6G+ / Frequency of cells ± SEM: CD11b^+Ly6C^+Ly6G− / Frequency of cells ± SEM: CD11b^+MDSC−(Mφ) / Frequency of cells ± SEM: CD11c^+CD11b+(DC) / Frequency of cells ± SEM: CD11c^+CD11b− (DC) / Frequency of cells ± SEM: CD4^+CD25^+Foxp3^+ / Frequency of cells ± SEM: CD19+: spleen, LAQ 25 mg/kg, MMF 100 mg/kg
[5] = spleen at age 32 weeks, oral gavage from age 11 weeks, LAQ 25 mg/kg 3 days per week, MMF 100 mg/kg 5 days/week
[6] = spleen at age 32 weeks, oral gavage from age 11 weeks, LAQ 25 mg/kg 3 days per week, MMF 100 mg/kg 5 days/week, in % (unit assumed)
[7] = Preventive, 25 weeks after treatment
[8] = Preventive, 25 weeks after treatment, in % (unit assumed)
[9] = Therapeutic (PU^lo), 10 wks after initiation of therapy
[10] = Therapeutic (PU^lo), 10 wks after initiation of therapy, in % (unit assumed)

`COc1c(C)c2c(c(O)c1C/C=C(\C)CCC(=O)OCCN1CCOCC1)C(=O)OC2` [MMF, mycophenolate mofetil, reference compound] was tested, and the “Animals with proteinuria reduced to levels below 300 mg/dL” value ([1]; PU^hi arm, after 8 weeks of treatment, LAQ 25 mg/kg, MMF 100 mg/kg) was “approximately 25%”, the “FSGS and IF/TA histology scores” value ([1]; PU^hi arm, compared to controls) was “significantly lower” and the Survival ([1]; treated after clinical nephritis / PU^hi, LAQ 25 mg/kg 3 times a week, MMF 100 mg/kg 5 times a week, vs water) was “not observed”. For the same molecule, the Anti-dsDNA ([2]; PU^lo arm) was “not significantly decreased”, the Increase of proteinuria ([2]; PU^lo arm) was “prevented increased proteinuria” and the “Rise in serum creatinine” value ([2]; PU^lo arm) was “prevented”. The Survival ([2]; PU^lo arm) was “significantly prolonged survival”, the “Reduction of endo-capillary hypercellularity, interstitial inflammation, and focal segmental glomerulosclerosis” value ([2]; PU^lo mice) was “equally effective” and the “Percentage of CD8^+ cells in spleen” value ([3]; compared to the control mice) was “decreased; also recorded: reduced”. The “Frequency of cells ± SEM: CD11b^+Ly6C^hiGr-1^− (MΦ^2)” value [3, 5] was 11.81 ± 1.58, the “Frequency of cells ± SEM: CD11b^+Ly6C^intGr-1^+ (Gr-1)” value [3, 5] was 25.01 ± 5.32 and the “Frequency of cells ± SEM: CD 19^+” value [3, 6] was 57.38 ± 3.89. For the same molecule, the “Frequency of cells ± SEM: CD19^+CD23^−CD21^+IgM^hi (MZ)” value [3, 6] was 3.78 ± 0.99, the “Percentage of CD4^+ T cells in spleen” value ([3]; vs control mice) was “decreased; also recorded: significantly lower percentage” and the “Numbers of MM (splenic PBMC)” value ([4]; mouse, in vivo) was “not”. The “Frequency of cells ± SEM: CD11b^+CD103^− (MΦ^1)” value [4, 5] was 2.26 ± 0.25^A, the “Frequency of cells ± SEM: CD11b^+Ly6C^intGr-1^− (MΦ^3)” value [4, 5] was 23.44 ± 1.89 and the “Frequency of cells ± SEM: CD11c^+CD103^+ (DC)” value [4, 5] was 0.48 ± 0.04^A. For the same molecule, the “Frequency of cells ± SEM: CD19^+CD23^+CD21^+IgM^hi (T2)” value [4, 6] was 36.56 ± 4.92, the “Frequency of cells ± SEM: CD4+” value [4, 7] was 26.2 ± 1.3 and the “Frequency of cells ± SEM: CD8+” value [4, 7] was 12.4 ± 0.9. The “Frequency of cells ± SEM: CD11b^+Ly6C^+Ly6G+” value [4, 7] was 15. ± 1.6, the “Frequency of cells ± SEM: CD11b^+Ly6C^+Ly6G−” value [4, 7] was 33.4 ± 1.8 and the “Frequency of cells ± SEM: CD11b^+MDSC−(Mφ)” value [4, 7] was 59.3 ± 2.3. For the same molecule, the “Frequency of cells ± SEM: CD11c^+CD11b+(DC)” value [4, 7] was 1.0 ± 0.1, the “Frequency of cells ± SEM: CD11c^+CD11b− (DC)” value [4, 7] was 4.4 ± 0.3 and the “Frequency of cells ± SEM: CD4^+CD25^+Foxp3^+” value [4, 8] was 7.9 ± 0.4. For the same molecule, the “Frequency of cells ± SEM: CD19+” value [4, 8] was 57.4 ± 3.9, the “Frequency of cells ± SEM: CD4+” value [4, 9] was 20.1 ± 0.7 and the “Frequency of cells ± SEM: CD8+” value [4, 9] was 13.5 ± 2.1. For the same molecule, the “Frequency of cells ± SEM: CD11b^+Ly6C^+Ly6G+” value [4, 9] was 17.5 ± 2.4, the “Frequency of cells ± SEM: CD11b^+Ly6C^+Ly6G−” value [4, 9] was 30.4 ± 2.7 and the “Frequency of cells ± SEM: CD11b^+MDSC−(Mφ)” value [4, 9] was 40.5 ± 3.1. The “Frequency of cells ± SEM: CD11c^+CD11b+(DC)” value [4, 9] was 0.9 ± 0.2, the “Frequency of cells ± SEM: CD11c^+CD11b− (DC)” value [4, 9] was 4.1 ± 0.7 and the “Frequency of cells ± SEM: CD4^+CD25^+Foxp3^+” value [4, 10] was 3.2 ± 0.8. The “Frequency of cells ± SEM: CD19+” value [4, 10] was 45.4 ± 3.3.

From patent US20130345257A1, “COMPOSITION FOR LUPUS NEPHRITIS AND METHODS OF MAKING AND USING THE SAME” (The Regents of the University of California, priority 2012, published 2013)
